In patent EP3338554A1, “COMPOSITION AND METHOD FOR PREVENTING DEPOSIT FORMATION IN A DRIP IRRIGATION SYSTEM” (Evonik Degussa GmbH, priority 2016, dated 2018):

Assay: Calcium sulfate precipitation test of NACE standard TM0374-2007 (scale inhibition efficiency)
Experimental: The efficiency for preventing the precipitation of calcium sulfate from aqueous solution was determined with the calcium sulfate precipitation test of NACE standard TM0374-2007. A composition prepared as in example 1 was added in amounts providing the concentrations of hydrogen peroxide and HEDP in the test brine given in table 4. The hydrogen peroxide and the HEDP used for making the composition were tested for comparison.

Row | Compound | % inhibition in calcium sulfate precipitation test (HEDP 1 ppm alone) [%] | % inhibition in calcium sulfate precipitation test (HEDP 5 ppm alone) [%] | % inhibition in calcium sulfate precipitation test (HEDP 10 ppm alone) [%] | % inhibition in calcium sulfate precipitation test (hydrogen peroxide 10 ppm alone) [%] | % inhibition in calcium sulfate precipitation test (hydrogen peroxide 50 ppm alone) [%] | % inhibition in calcium sulfate precipitation test (hydrogen peroxide 100 ppm alone) [%]
1 | CC(O)(P(=O)(O)O)P(=O)(O)O [HEDP, 1-hydroxyethylidene-1,1-diphosphonic acid] | 39 | 77 | 74 | – | – | –
2 | OO [Hydrogen peroxide, hydrogen peroxide] | – | – | – | -8 | -9 | -9
